# Literature values in US9180152B2, “Method for treating psoriasis” (NIKKEN SOHONSHA CORPORATION, priority 2009, dated 2015).
# System: Psoriasis
# Settings: well-tolerated oral doses
compound,measurement,value
CC1=C(/C=C/C(C)=C\C=C\C(C)=C\C(=O)O)C(C)(C)CCC1 [9-cis-retinoic acid],response of psoriasis,did not respond
